Measurements reported in patent US20070196890A1, “Prebiotic effect analysis” (priority 2003, published 2007).

Experiments:
Lactobacilli = assay: Batch culture fermentation, FISH enumeration; assay type: cell-based, Lactobacillus/Enterococcus spp.; conditions: 1% (w/v) substrate
Method: (§1) Faecal samples are obtained from healthy human volunteers. Volunteers are required not to have been prescribed antibiotics for at least 6 months prior to the study and have no history of gastrointestinal diseases. The samples are collected on site and used immediately following collection. A 1/10 dilution in anaerobic phosphate buffer (0.1 M, pH 7.4) is prepared and the samples homogenised in a stomacher for 2 minutes.
(§2) Sterile, stirred, batch culture fermentation vessels (300 ml volume) are filled with 135 ml basal nutrient medium (peptone water 2 g/l, yeast extract 2 g/l, NaCl 0.1 g/l, K2HPO4 0.04 g/l, KH2PO4 0.04 g/l, MgSO4.7H2O 0.01 g/l, CaCl2.6H2O 0.01, NaHCO3 2 g/l, Tween 80 2 ml, Hemin 0.02 g/l, Vitamin K1 10 μl, Cysteine.HCl 0.5 g/l, Bile salts (sodium glycocholate and sodium taurocholate) 0.5 g/l, pH 7.0) and gassed overnight with oxygen free nitrogen. […] Samples (3 ml) from each vessel are obtained for fluorescence in situ hybridisation (FISH), analysis of SCFA by high performance liquid chromatography (HPLC) and total carbohydrate measurement by assay. […]
(§3) Differences in bacterial populations are assessed through use of FISH with oligonucleotide probes designed to target diagnostic regions of 16S rRNA. […]

Clostridia = assay: Batch culture fermentation, FISH enumeration; assay type: cell-based, Clostridium coccoides and Clostridium histolyticum; conditions: 1% (w/v) substrate
Method: as §1, §2, §3

E. coli = assay: Batch culture fermentation, FISH enumeration; assay type: cell-based, Escherichia coli; conditions: 1% (w/v) substrate
Text: For total bacterial counts the nucleic acid stain 4,6-diamidino-2-phenylindole (DAPI) is used. […] For each slide at least 15 different fields of view are counted. […]

Eubacteria = assay: Batch culture fermentation, FISH enumeration; assay type: cell-based, Eubacterium rectale; conditions: 1% (w/v) substrate
Method: as §1, §2, §3

Bacteroides spp. = assay: Batch culture fermentation, FISH enumeration; assay type: cell-based; conditions: 1% (w/v) substrate
Method: as §1
(§4) Sterile, stirred, batch culture fermentation vessels (300 ml volume) are filled with 135 ml basal nutrient medium (peptone water 2 g/l, yeast extract 2 g/l, NaCl 0.1 g/l, K2HPO4 0.04 g/l, KH2PO4 0.04 g/l, MgSO4.7H2O 0.01 g/l, CaCl2.6H2O 0.01, NaHCO3 2 g/l, Tween 80 2 ml, Hemin 0.02 g/l, Vitamin K1 10 μl, Cysteine.HCl 0.5 g/l, Bile salts (sodium glycocholate and sodium taurocholate) 0.5 g/l, pH 7.0) and gassed overnight with oxygen free nitrogen. Prior to addition of the faecal slurry,0.25%, 0.5% or 1% (w/v) testing substrates are added to different vessels, culture temperature is set at 37° C. by means of a circulating water bath and medium pH is maintained at 6.8 using an Electrolab pH controller. The vessels are inoculated with 15 ml of fresh faecal slurry ( 1/10 w/v) and continuously sparged with O2-free N2 at a flow rate of 15 ml/min. Samples (3 ml) from each vessel are obtained for fluorescence in situ hybridisation (FISH), analysis of SCFA by high performance liquid chromatography (HPLC) and total carbohydrate measurement by assay. Batch cultures are run over a period of 24 hours and samples are obtained every 2 hours up to 12 hours and then at 15 and 24 hours.
(§5) Differences in bacterial populations are assessed through use of FISH with oligonucleotide probes designed to target diagnostic regions of 16S rRNA. These are commercially synthesised and labelled with the fluorescent dye Cy3 (provided by Eurogentec UK Ltd).
(§6) For total bacterial counts the nucleic acid stain 4,6-diamidino-2-phenylindole (DAPI) is used. Samples obtained from fermentation vessels are diluted in 4% (w/v) paraformaldehyde and fixed overnight at 4° C. The cells are then centrifuged at 1500×g for 5 minutes, washed twice with phosphate-buffered saline (PBS; 0.1 M, pH 7.0), resuspended in a mixture of PBS/99% ethanol (1:1 w/v) and stored at −20° C. for at least 1 hour. For Lab 158 probe samples are further resuspended in the enzyme mixture containing agents that increase cell permeability and incubated for 1 hour at 37° C. The cells are then washed in PBS, resuspended in 100% methanol and stored at −20° C. for at least 1 hour. The cell suspension is then added to the hybridisation mixture and left overnight to hybridise at the appropriate temperature for each probe. Hybridized mixture is vacuum filtered using a 0.2 μm Isopore membrane filter (Millipore Corporation, Herts, UK). The filter is removed, placed onto a glass slide with SlowFade (Molecular Probes, Eugan, Oreg., USA) and examined under a fluorescent microscope (Nicon Eclipse, E400). The DAPI stained cells are examined under UV light and hybridised cells viewed using a DM510 filter. […] Samples are taken after 24 hours. […] Microbial counts are presented as log10cells/ml.

Bifidobacterium spp. = assay: Batch culture fermentation, FISH enumeration; assay type: cell-based; conditions: 1% (w/v) substrate
Method: as §1, §4, §5, §6

Desulfovibrio spp. = assay: Batch culture fermentation, FISH enumeration; assay type: cell-based; conditions: 1% (w/v) substrate
Method: as §1, §4, §5, §6

faecal bacteria [1] = assay: Analysis of SCFA production by HPLC, batch culture; assay type: cell-based, human; conditions: 1% (w/v) substrate
Method: The production of succinic, lactic, formic, acetic, propionic, isobutyric, butyric, isovaleric and valeric acids in the fermentations is quantified by HPLC. Samples are centrifuged at 1500×g for 15 minutes and the resultant supernatant used for injection. A Model 1050 UV HPLC (Hewlett Packard), with an integrated oven compartment (50° C.) and data system is used in combination with a differential refractometer (Knauer). Sample injection is performed using an autosampler and is of 20 μl volume. The column is a pre-packed Aminex HPX-87-H strong cation-exchange resin column (150×7.8 mm I.D.), fitted with an ion exclusion micro-guard refill cartridge (Bio-Rad Labs., USA). The eluent used is 0.005 M sulphuric acid. Faecal samples are incubated with 135 ml basal nutrient medium containing 1% (w/v) substrate in batch culture systems at 37° C. Samples are taken every 2 hours up to 10 hours and then at 15 and 24 hours.

faecal bacteria [2] = assay: Total carbohydrate assay, rate of substrate assimilation, batch culture; assay type: cell-based, human; conditions: St=S0−Art, S0=1% by weight, exponential phase of bacterial growth
Method: A phenol-sulphuric acid assay is used for the determination of total carbohydrate content as expressed in glucose equivalents. The assay is calibrated with D-glucose standards ranging from 0 to 0.15 mgml^−1. Measurements of the absorbance at 450 nm are taken using the spectrophotometer and plotted against the standards. The total carbohydrate content is thus calculated. […] Samples are taken every 2 hours up to […] and then at 15 and 24 hours. […] The rate of assimilation is calculated with the following equation: St=S0−Art […]

faecal bacteria [3] = assay: Measure of the prebiotic effect (MPE), batch culture; assay type: cell-based, human; conditions: ½√(x²y²+x²z²+y²z²), x=PI (μmax), y=ratio, z=Ar; sign from PI
Text: The three values (PI, Ar and ratio) obtained are used to calculate the MPE value using the following equation: ½√{square root over (x^2y^2+x^2z^2+y^2z^2)}=MPE wherein x=PI (as calculated under paragraph 2.1.2); y=ratio of lactate over total SCFA (as calculated under paragraph 2.2) and z=Ar (as calculated under paragraph 2.3).

Compound: OC[C@H]1O[C@@](CO)(O[C@H]2O[C@H](CO)[C@@H](O)[C@H](O)[C@H]2O)[C@@H](O)[C@@H]1O [Sucrose, sucrose]
- μmax L (maximum growth rate, lactobacilli) (Lactobacilli): 0.03 h⁻¹
- Lactobacilli microbial counts (Lactobacilli; 24 hours, FISH): 6.7 log10cells/ml
- μmax Cl (maximum growth rate, Clostridium coccoides and Clostridium histolyticum) (Clostridia): 0.22 h⁻¹
- Clostridia microbial counts (Clostridia; 24 hours, FISH): 7.6 log10cells/ml
- μmax Co (maximum growth rate, Escherichia coli) (E. coli): 0.27 h⁻¹
- E. Coli microbial counts (E. coli; 24 hours, FISH): 7.7 log10cells/ml
- μmax E (maximum growth rate, Eubacterium rectale) (Eubacteria): -0.21 h⁻¹
- Eubacteria microbial counts (Eubacteria; 24 hours, FISH): 7.7 log10cells/ml
- μmax Ba (maximum growth rate, Bacteroides spp) (Bacteroides spp.): 0.11 h⁻¹
- Bacteroides microbial counts (Bacteroides spp.; 24 hours, FISH): 8.1 log10cells/ml
- μmax B (maximum growth rate, Bifidobacterium spp) (Bifidobacterium spp.): 0.13 h⁻¹
- Bifidobacteria microbial counts (Bifidobacterium spp.; 24 hours, FISH): 8.0 log10cells/ml
- μmax SRB (maximum growth rate, Desulfovibrio spp) (Desulfovibrio spp.): 0.21 h⁻¹
- Desulfovibrio microbial counts (Desulfovibrio spp.; 24 hours, FISH): 6.7 log10cells/ml
- lactate production (faecal bacteria [1]): low
- Ar (rate of substrate assimilation) (faecal bacteria [2]): 1.4 per hour
- Ar (rate of substrate assimilation) (faecal bacteria [2]; listed as sucrose): 1.40 per hour
- MPE (measure of the prebiotic effect) (faecal bacteria [3]): −0.6
